Patent EP0037318A1, “Composition, particularly useful in the treatment and prevention of dandruff and containing metallic derivatives of thiobenzoic acid” (PIERRE FABRE S.A., priority 1980, dated 1981)
Like-named read-outs stand apart in the source and are kept apart here.

Assays:
[1] = Anti-oxidant power: daily peroxide index (Ip) of linoleic acid containing the suspended agent; details: for INDICES DE PEROXYDES: agent at 1 % suspended in linoleic acid, stored at 60°C
Method: La mesure du pouvoir anti-oxydant est effectuée selon la méthode décrite par CARNAT et POURRAT (Ann. Pharm. Fr. 1979, 37, n° 3-4, p. 119-124) en remplaçant l'huile de lin par de l'acide linoléique.
L'oxydation de l'acide linoléique est suivie chaque jour par une mesure de l'indice de peroxydes Ip.
Dans un flacon contenant l'acide linoléique on ajoute 15 ml de CHC13, 20 ml d'acide acétique RP puis 1 ml de solution aqueuse saturée de KI. On agite 1 mn et on laisse reposer le flacon 5 mn à l'obscurité. Après avoir ajouté 100 ml d'eau on dose l'iode libéré par du thiosulfate de sodium 0,01 N. [formula] v = volume de Na2S2O3 versé dans le dosage v = volume de Na2S2O3 versé dans l'essai à blanc Ip est exprimé en mmoles d'oxygène/kg d'acide gras.
Remarque : v doit être voisin de O car un Ip élevé révèle une oxydation du KI par l'oxygène de l'air ou dissous dans les réactifs. Pour éviter cela, les réactifs et le solvant devront être débarrassés de l'oxygène dissous par barbotage de gaz inerte, ceci afin d'obtenir des résultats comparables.
Les différents agents anti-oxydants étudiés sont mis en suspension dans l'acide linoléique et les mélanges ainsi obtenus sont stockés à l'étuve (60°C).
Tous les jours un Ip est effectué sur les mélanges suivants : • 1 - acide thiosalicylique à 1 % • 2 - pyridine thione Zn à 1 % • 3 - thiosalicylate de Zn à 1 %.

[2] = Delay of auto-oxidation (Waginaire conditions): daily Ip in interesterified oil Labrafil M 1944 CS; details: rank order by delay of the auto-oxidation maximum; dose 1/10 000 in Labrafil M 1944 CS, Ip daily for 90 days at 60°C
Excerpt: (Bulletin technique SFPA n° 60) l'évolution des peroxydes se fait en trois phases : • 1) évolution lente de l'Ip (non observée avec l'acide linoléique) • 2) évolution rapide de l'Ip (deux premiers jours) • 3) stabilisation et décroissance de l'Ip.
Cette dernière période apparaît après plusieurs semaines. L'auteur attribue ce phénomène à la formation de groupements carbonyles (aldéhydes et cétones).
On obtient un profil de courbe Ip = f(t) comportant un maximum d'auto-oxydation net.
L'anti-oxydant est d'autant plus efficace que le maximum d'auto-oxydation est-retardé.

[3] = Partition coefficients at 20°C; format: physicochemical
Method: 2°) Détermination des coefficients de partage à 20°C

Zinc content = format: physicochemical
[4] = Maximum solubility in water at 20°C, by spectroscopy
[5] = water

**Q.** Which results are given for O=C(O)c1ccccc1S [acide thiosalicylique]?
**A.** INDICES DE PEROXYDES ([1]; 0 (start)): 0,8 millimoles D2 pour 1000 g d'acide linoléique; INDICES DE PEROXYDES ([1]; 1 jour): 117,2 millimoles D2 pour 1000 g d'acide linoléique; INDICES DE PEROXYDES ([1]; 2 jours): 191,9 millimoles D2 pour 1000 g d'acide linoléique; INDICES DE PEROXYDES ([1]; 3 jours): 202,7 millimoles D2 pour 1000 g d'acide linoléique; INDICES DE PEROXYDES ([1]; 4 jours): 204,2 millimoles D2 pour 1000 g d'acide linoléique; Pouvoir anti-oxydant [2]: thiosalicylate de Zinc > pyrithione zinc> acide thiosalicylique

**Q.** For [O-][n+]1ccccc1[S-].[O-][n+]1ccccc1[S-].[Zn+2] [pyrithione zinc], which “INDICES DE PEROXYDES” value ([1]; 0 (start)) is on record?
**A.** 0,7 millimoles D2 pour 1000 g d'acide linoléique

**Q.** What about the “INDICES DE PEROXYDES” value ([1]; 1 jour) of the same molecule?
**A.** 98 millimoles D2 pour 1000 g d'acide linoléique

**Q.** And the “INDICES DE PEROXYDES” value ([1]; 2 jours)?
**A.** 174,1 millimoles D2 pour 1000 g d'acide linoléique

**Q.** What about the “INDICES DE PEROXYDES” value ([1]; 3 jours) of the same molecule?
**A.** 177,6 millimoles D2 pour 1000 g d'acide linoléique

**Q.** What about the “INDICES DE PEROXYDES” value ([1]; 4 jours) of the same molecule?
**A.** 183,7 millimoles D2 pour 1000 g d'acide linoléique

**Q.** And the Pouvoir anti-oxydant [2]?
**A.** thiosalicylate de Zinc > pyrithione zinc> acide thiosalicylique

**Q.** And the “Valeurs de P” value ([3]; CHCl3 - eau)?
**A.** 0,30

**Q.** And the “Valeurs de P” value ([3]; Octanol-eau)?
**A.** 0,64

**Q.** And the “% Zinc” value (Zinc content)?
**A.** 20,5%

**Q.** And the “Solubilité maximum dans l'eau” value [4]?
**A.** 2 mg % ml

**Q.** With “chloro-5-thiosalicylate de zinc [Exemple 9]” as the molecule, how does the “% Zinc” value (Zinc content) read?
**A.** 25,7%

**Q.** For “méthoxy-4-thiosalicylate de zinc [Exemple 8]”, which “% Zinc” value (Zinc content) is on record?
**A.** 26,3%

**Q.** For “ortho thiocrésotinate de zinc [Exemple 7]”, which “% Zinc” value (Zinc content) is on record?
**A.** 28,1%

**Q.** Which “INDICES DE PEROXYDES” value ([1]; 0 (start)) does the source give for thiosalicylate de zinc [Exemple 1] here?
**A.** 0,6 millimoles D2 pour 1000 g d'acide linoléique

**Q.** What about the “INDICES DE PEROXYDES” value ([1]; 1 jour) of the same molecule?
**A.** 45,5 millimoles D2 pour 1000 g d'acide linoléique

**Q.** What about the “INDICES DE PEROXYDES” value ([1]; 2 jours) of the same molecule?
**A.** 84,4 millimoles D2 pour 1000 g d'acide linoléique

**Q.** What about the “INDICES DE PEROXYDES” value ([1]; 3 jours) of the same molecule?
**A.** 99,5 millimoles D2 pour 1000 g d'acide linoléique

**Q.** What about the “INDICES DE PEROXYDES” value ([1]; 4 jours) of the same molecule?
**A.** 103,9 millimoles D2 pour 1000 g d'acide linoléique

**Q.** And the activité anti-oxydante ([1]; in words, compared with pyrithione zinc)?
**A.** excellente

**Q.** And the Pouvoir anti-oxydant [2]?
**A.** thiosalicylate de Zinc > pyrithione zinc> acide thiosalicylique

**Q.** What about the “Valeurs de P” value ([3]; CHCl3 - eau) of the same molecule?
**A.** 0,05

**Q.** What about the “Valeurs de P” value ([3]; Octanol-eau) of the same molecule?
**A.** 0,21

**Q.** And the “% Zinc” value (Zinc content)?
**A.** 30%

**Q.** And the “Solubilité maximum dans l'eau” value [5]?
**A.** 1,80 mg % ml
